Measurements published in patent US7601673B2 (priority 2004, dated 2009).
Where two headings read alike, the source gives them in different places.

System: Phytophthora infestans
Assay type: in vivo, Phytophthora infestans on tomato plants
Conditions: individual active compound, tomato leaves, protective, rated after 6 days

Cc1c(Br)c2ccc(F)cc2n1S(=O)(=O)c1ncn(S(=O)(=O)N(C)C)n1 [I-62, Tab.7 (IA), N,N-dimethyl-3-(3-bromo-6-fluoro-2-methylindole-1-sulfonyl)-[1,2,4]triazole-1-sulfonamide]
Efficacy in % of the untreated control (1 ppm in the spray liquor): 56%

CC1CCN(c2c(-c3c(F)cc(F)cc3F)c(Cl)nc3ncnn23)CC1 [II, 5-chloro-7-(4-methylpiperidin-1-yl)-6-(2,4,6-trifluorophenyl)-[1,2,4]triazolo[1,5-a]pyrimidine]
Efficacy in % of the untreated control (0.25 ppm in the spray liquor): 0% | Efficacy in % of the untreated control (1 ppm in the spray liquor): 0% | Efficacy in % of the untreated control (4 ppm in the spray liquor): 0%
